Experimental findings from PubChem BioAssay (NCI) are described below.

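Compound exposure: 48 hours, 5 concentrations, 96-well plates. Definition used: TGI = concentration required for complete inhibition of growth.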

Some test systems named below: IGROV1 ovarian; HL-60(TB) leukemia; HT29 colon; NCI-H522 lung; A549 NSCLC; NCI-H23 lung; EKVX NSCLC; DU-145 prostate; UACC-257 melanoma; OVCAR-5 ovarian.
Assay in all cases: growth of human tumour cells (NCI), 48 h

Regarding `CCCCCCCCOCC1S(=O)(=O)OCCOS1(=O)=O`, the TGI in the test with IGROV1 ovarian, in the test with HL-60(TB) leukemia, in the test on HT29 colon, with NCI-H522 lung, with A549 NSCLC and in the test with NCI-H23 lung was over 100 µM throughout. For the same compound, the TGI with EKVX NSCLC, with DU-145 prostate, in the test on UACC-257 melanoma and in the test on OVCAR-5 ovarian was over 100 µM each time.

With `CCCCCc1c(CCCC)c(=O)[nH]c2cc(CNCC(OC)OC)ccc12`, the TGI in the test with IGROV1 ovarian worked out at 29.6 µM; in the test with HL-60(TB) leukemia, 43.9 µM; in the test with HT29 colon, 12.4 µM; in the test on NCI-H522 lung it was 34.6 µM; in the test with A549 NSCLC, 25.7 µM; in the test with NCI-H23 lung, 32.8 µM. Besides, the TGI in the test on EKVX NSCLC is 31.3 µM; in the test with DU-145 prostate it was 28 µM; with UACC-257 melanoma it was 16.2 µM; in the test on OVCAR-5 ovarian, 28 µM.

`COC(=O)CC1C2CC3C(C2=O)C13` (stereo not given): the TGI in the test on IGROV1 ovarian, in the test on HL-60(TB) leukemia, in the test with HT29 colon, in the test on NCI-H522 lung, in the test with A549 NSCLC and with NCI-H23 lung was over 100 µM throughout. Besides, the TGI with EKVX NSCLC, in the test with DU-145 prostate, in the test with UACC-257 melanoma and in the test with OVCAR-5 ovarian was over 100 µM in each case.

As to `c1ccc2c(c1)SC1Sc3ccccc3[S+]21` (stereo not given), the TGI with IGROV1 ovarian is 50.5 µM; in the test on HL-60(TB) leukemia it was 60.9 µM; in the test with HT29 colon, over 85.3 µM; in the test on NCI-H522 lung, 26.1 µM; in the test on A549 NSCLC, over 100 µM; with NCI-H23 lung, 37.4 µM. In addition, the TGI is 52.5 µM with EKVX NSCLC, over 76.3 µM in the test with DU-145 prostate, 33.8 µM in the test with UACC-257 melanoma and over 100 µM in the test on OVCAR-5 ovarian.

In the case of `Nc1cc(CO)cc(Nc2c3ccccc3nc3occc23)c1`, the TGI in the test on IGROV1 ovarian was 90.8 µM; in the test with HL-60(TB) leukemia it was 74.4 µM; in the test with HT29 colon it was 30.5 µM; in the test with NCI-H522 lung, 39.9 µM; with A549 NSCLC, over 100 µM; in the test with NCI-H23 lung, 71.7 µM. Also, the TGI in the test on EKVX NSCLC, in the test on DU-145 prostate, with UACC-257 melanoma and with OVCAR-5 ovarian was over 100 µM in each case.

As to `CC(=O)Nc1ccc(Nc2nc(=O)[nH]c(=O)[nH]2)cc1`, the TGI in the test with IGROV1 ovarian, with HL-60(TB) leukemia, with HT29 colon, in the test on NCI-H522 lung, in the test on A549 NSCLC and in the test with NCI-H23 lung was over 100 µM in each case. In addition, the TGI with EKVX NSCLC, in the test with DU-145 prostate, in the test with UACC-257 melanoma and in the test on OVCAR-5 ovarian was over 100 µM throughout.

Consider `CC1(C)N=C(N)N=C(N)N1c1cccc(CSc2ccccc2)c1`, for which the TGI in the test on IGROV1 ovarian was 25 µM; with HL-60(TB) leukemia it was 13.3 µM; with HT29 colon it was over 100 µM; in the test on NCI-H522 lung it was 27.3 µM; with A549 NSCLC, over 100 µM; with NCI-H23 lung, over 100 µM. In addition, the TGI in the test with EKVX NSCLC, in the test on DU-145 prostate, in the test on UACC-257 melanoma and with OVCAR-5 ovarian was over 100 µM in each case.

Regarding `Cc1cc2ccccc2c[n+]1CC(=O)CC([O-])(C(F)(F)F)C(F)(F)F`, the TGI in the test on IGROV1 ovarian, with HL-60(TB) leukemia, with HT29 colon, with NCI-H522 lung, in the test on A549 NSCLC and in the test with NCI-H23 lung was over 100 µM in each case. For the same compound, the TGI in the test with EKVX NSCLC, in the test on DU-145 prostate, in the test with UACC-257 melanoma and in the test on OVCAR-5 ovarian was over 100 µM throughout.

As to `COc1ccc(CNc2nc3ccccc3nc2-c2cccs2)cc1`, the TGI in the test on IGROV1 ovarian, in the test with HL-60(TB) leukemia, with HT29 colon, with NCI-H522 lung, in the test on A549 NSCLC and in the test on NCI-H23 lung was over 100 µM each time. Further, the TGI in the test with EKVX NSCLC, with DU-145 prostate, in the test with UACC-257 melanoma and in the test with OVCAR-5 ovarian was over 100 µM each time.

As for `CN(C)c1ccc(/C=N/NC2=N/C(=C\c3ccco3)C(=O)N2)cc1`, the TGI in the test on IGROV1 ovarian, with HL-60(TB) leukemia, in the test with HT29 colon, in the test with NCI-H522 lung, in the test on A549 NSCLC and in the test on NCI-H23 lung was over 100 µM each time. In addition, the TGI in the test with EKVX NSCLC, with DU-145 prostate, in the test on UACC-257 melanoma and in the test with OVCAR-5 ovarian was over 100 µM in each case.

For the compound `COc1ccc(N=C/C=C/Nc2ccc(OC)cc2)cc1`, the TGI came to 25.1 µM with IGROV1 ovarian; 8.45 µM in the test on HL-60(TB) leukemia; 8.31 µM with HT29 colon; 23.7 µM in the test on NCI-H522 lung; 25.2 µM in the test with A549 NSCLC; 41.2 µM in the test on NCI-H23 lung. Also, the TGI in the test on EKVX NSCLC worked out at 30.6 µM; in the test with DU-145 prostate, 32.9 µM; in the test with UACC-257 melanoma, 18.7 µM; with OVCAR-5 ovarian, 29.6 µM.

With `c1ccc(N=NNNc2ccc(-c3nc4ccccc4[nH]3)cc2)cc1`, the TGI with IGROV1 ovarian was over 100 µM; with HL-60(TB) leukemia, 62.1 µM; in the test on HT29 colon, 94.7 µM; in the test on NCI-H522 lung, over 100 µM; in the test with A549 NSCLC, over 100 µM; in the test on NCI-H23 lung it was over 100 µM. The TGI in the test on EKVX NSCLC, with DU-145 prostate, in the test with UACC-257 melanoma and in the test on OVCAR-5 ovarian was over 100 µM each time.
